# Test results as given in article PMC9928118, “Funneling modulatory peptide design with generative models: Discovery and characterization of disruptors of calcineurin protein-protein interactions” (PLOS Computational Biology, 2023).
# System: GST-tagged Cn
# Assay: PEPperPRINT peptide microarray binding assay with GST-tagged Cn
# From the text: We then estimated in-silico the binding strength of the various peptides to Cn by template-based docking followed by flexible backbone refinement using Modeller and PepCrawler (Figs 4 and S4). In parallel, we performed a medium-throughput qualitative binding assay using a PEPperPRINT peptide microarray to evaluate the direct binding of Cn to selected peptides (Figs 4 and S5, S3 Data).
# Fig 4 Medium-throughput filtering by structural modeling and microarray screening. (a) Depiction of the structural modeling protocol: after alignment to the known PxIxIT binding site, an efficient flexible backbone structure refinement algorithm is applied to estimate the docking energy. […] (c) Coefficients of the equivalent single-site model fitted by sparse linear regression, shown in weight logo representation. […] Colors indicate physical property (black = hydrophobic, red = negatively charged, etc.). (d) Per-gene distribution of docking scores across natural fragments (lower is better). […] (e) Overview of the microarray screening. Peptides are printed on the chip (two circles per peptide). After pouring of Cn and subsequent washing, fluorescent-tagged, a Cn-targeting antibody is overlaid and an image is taken. Fluorescent spots indicate strong Cn binders. (f) Scatter plot of the sequence likelihood (normalized by length, higher is better) against fluorescence level (higher is better, see Methods for details of the data analysis).
# In parallel, selected peptides were tested for Cn binding on a chip microarray (PEPperPRINT). 786 peptides were printed on the chip and were incubated with GST-tagged Cn overnight at 4°C. Following extensive washing, binding was detected by applying a fluorescently labeled (Alexa-Fluor 647) GST antibody. […] The experiment was repeated five times, and Z-normalized fluorescence levels were determined following post-processing of the raw data (Methods, S5A, S5B and S5C Fig).
# The peptide array was prepared as a custom array pepper chip (PEPperPRINT). For binding detection, 1mg/ml GST-tagged Cn was incubated overnight on the microarray at 4°C. Following extensive washing, fluorescently labeled (Alexa-Fluor 647) GST-antibody. […] The experiment was repeated five times. Each scan was analyzed as follows: a grid was overlaid using the border HA markers to determine regions of interest (ROI) for each peptide (two ROIs per peptide) and the logarithm of the average fluorescence intensity was computed for each ROI. […] To remove spatial artifacts, a position-dependent baseline fluorescence was fitted using a second-order polynomial, and subtracted to the fluorescence. Fluorescence levels were next averaged over the two ROI for each peptide and Z-normalized. […] The Z-scores were averaged over the five repetitions to yield one fluorescence score per peptide.
# [1] = GST-tagged Cn, max over the chip locations
# [2] = GST-tagged Cn, mean over the chip locations
# [3] = GST-tagged Cn, max over the spots named in Location on chip
# [4] = GST-tagged Cn, mean over the spots named in Location on chip
# [5] = GST-tagged Cn, max over the spots on the chip (two locations)
# [6] = GST-tagged Cn, mean over the spots on the chip (two locations)
# [7] = GST-tagged Cn, max over the chip spots listed under Location on chip
# [8] = GST-tagged Cn, mean over the chip spots listed under Location on chip
# [9] = max over the chip locations listed for the peptide (two spots)
# [10] = mean over the chip locations listed for the peptide (two spots)
# [11] = max over the spots listed under Location on chip
# [12] = mean over the spots listed under Location on chip
sequence,measurement,setting,value
TFWTNPQFRVTVTEPD [SeqRBMlowT_4663],Chip Fluorescence (max),[1],0.1471
same,Chip Fluorescence (mean),[2],-0.7824
APSKITEVVVHECEVL [SeqRBM_4402],Chip Fluorescence (max),[3],1.576
same,Chip Fluorescence (mean),[4],-0.4054
RNPGTPLLELKGHAAS [SeqRBMlowT_8729],Chip Fluorescence (max),[1],-0.2859
same,Chip Fluorescence (mean),[2],-0.9089
SQLAAPAINIDFAPTN [SeqRBMlowT_5061],Chip Fluorescence (max),[1],0.08477
same,Chip Fluorescence (mean),[2],-0.8412
QTSCLPFPVVNSQEGQ [SeqRBM_2540],Chip Fluorescence (max),[5],1.036
same,Chip Fluorescence (mean),[6],-0.9088
QYAYNSQMMGITTQLQ [Seqshuffled_9335],Chip Fluorescence (max),[7],0.8878
same,Chip Fluorescence (mean),[8],-0.5817
MLDAIPEVVVSPPEEP [SeqRBM_4087],Chip Fluorescence (max),[3],1.659
same,Chip Fluorescence (mean),[4],-0.168
TFWTNPQYVVSLEEPD [SeqRBMlowT_5673],Chip Fluorescence (max),[7],0.9389
same,Chip Fluorescence (mean),[8],0.02031
PSEDQPGIVVHVCEED [SeqRBMlowT_124],Chip Fluorescence (max),[9],4.395
same,Chip Fluorescence (mean),[10],0.1564
RAYINPFMQFQIGGNH [SeqRBMlowT_4074],Chip Fluorescence (max),[11],2.865
same,Chip Fluorescence (mean),[12],0.3097
LVWDNGSYTGRTIKAP [Seqshuffled_9818],Chip Fluorescence (max),[7],0.8809
same,Chip Fluorescence (mean),[8],-0.1421
LMVSPPEITISPAELH [SeqRBM_5585],Chip Fluorescence (max),[11],3.353
same,Chip Fluorescence (mean),[12],0.761
KAYMCPFMQFIEGGRR [SeqRBMlowT_535],Chip Fluorescence (max),[7],0.9778
same,Chip Fluorescence (mean),[8],-1.603
NVSSSPRVTLKIPQHR [SeqRBM_7185],Chip Fluorescence (max),[5],1.102
same,Chip Fluorescence (mean),[6],0.1459
RAMRILKCCPHPAAWN [Seqrandom_9981],Chip Fluorescence (max),[5],1.034
same,Chip Fluorescence (mean),[6],0.3693
SFWTNPQFRVKLEEVD [SeqRBMlowT_8566],Chip Fluorescence (max),[5],1.129
same,Chip Fluorescence (mean),[6],0.3513
TFWTNPQYRVHVPDED [SeqRBMlowT_2927],Chip Fluorescence (max),[5],1.2431
same,Chip Fluorescence (mean),[6],-0.6745
TFWTNPQFKVSLEEED [SeqRBMlowT_1125],Chip Fluorescence (max),[11],2.918
same,Chip Fluorescence (mean),[12],1.097
TFWTNPQFKITLTEPD [SeqRBMlowT_689],Chip Fluorescence (max),[5],1.036
same,Chip Fluorescence (mean),[6],-0.78
KHLDVPDIIITPPTPT [SeqC16orf74_Pan_troglodytes],Chip Fluorescence (max),[9],11.1628
same,Chip Fluorescence (mean),[10],2.896
KAYIMLFFTFIDGGQK [SeqRBM_3979],Chip Fluorescence (max),[7],0.8506
same,Chip Fluorescence (mean),[8],-0.3833
VRFTLPEKQVHSSAPS [SeqRBM_2315],Chip Fluorescence (max),[7],0.7129
same,Chip Fluorescence (mean),[8],-0.8346
GAPITPHKQGNEKAVS [SeqRBM_6919],Chip Fluorescence (max),[7],0.7143
same,Chip Fluorescence (mean),[8],-1.223
AGCTVNNYSTNFAEND [Seqshuffled_9821],Chip Fluorescence (max),[11],2.618
same,Chip Fluorescence (mean),[12],0.6288
PSEDQPGIVVHVCEEG [SeqRBMlowT_361],Chip Fluorescence (max),[9],3.843
same,Chip Fluorescence (mean),[10],0.9779
ASVSNPEITVTSAETE [SeqRBM_9489],Chip Fluorescence (max),[9],15.1807
same,Chip Fluorescence (mean),[10],1.275
VPDIGHMALHHDQIQP [Seqrandom_9983],Chip Fluorescence (max),[7],0.5967
same,Chip Fluorescence (mean),[8],-0.4753
SQAKSPRIEITAYTHV [SeqRBM_8514],Chip Fluorescence (max),[7],0.9232
same,Chip Fluorescence (mean),[8],-0.444
KAYMCPYMQFIDGGRK [SeqRBMlowT_9280],Chip Fluorescence (max),[3],1.462
same,Chip Fluorescence (mean),[4],1.063
KMAKFLINLSAEKSVM [Seqrandom_9965],Chip Fluorescence (max),[5],1.232
same,Chip Fluorescence (mean),[6],-0.1213
LHPTCDPFRCSTHQSH [Seqshuffled_9610],Chip Fluorescence (max),[5],1.254
same,Chip Fluorescence (mean),[6],0.008632
PDEAQPGIVVHVCELP [SeqRBMlowT_301],Chip Fluorescence (max),[5],1.28
same,Chip Fluorescence (mean),[6],0.6681
TFWTNPQFKLKLLDPD [SeqRBMlowT_4269],Chip Fluorescence (max),[11],3.1491
same,Chip Fluorescence (mean),[12],0.8579
RNPGTFPLTLEGHKKQ [SeqRBMlowT_6333],Chip Fluorescence (max),[5],1.229
same,Chip Fluorescence (mean),[6],-0.4106
ADEAGPEIVITPTELP [SeqRBMlowT_3142],Chip Fluorescence (max),[1],0.161
same,Chip Fluorescence (mean),[2],-1.962
GVPETPSRPVDPTAPS [SeqRBM_5086],Chip Fluorescence (max),[1],-0.4316
same,Chip Fluorescence (mean),[2],-1.3551
LSARYPEIVVSVPEHN [SeqRBM_9361],Chip Fluorescence (max),[7],0.7337
same,Chip Fluorescence (mean),[8],-0.349
TYWTNPQFRVTLEDPD [SeqRBMlowT_4395],Chip Fluorescence (max),[11],3.405
same,Chip Fluorescence (mean),[12],0.7303
ATSFVPQLASTLFSLW [SeqRBM_1383],Chip Fluorescence (max),[7],0.6271
same,Chip Fluorescence (mean),[8],-0.8819
VKLVIIQVRSASVDAN [SeqRBM_6437],Chip Fluorescence (max),[1],-0.5934
same,Chip Fluorescence (mean),[2],-1.618
TFWTNPQFNVTLSEAD [SeqRBM_9395],Chip Fluorescence (max),[11],2.777
same,Chip Fluorescence (mean),[12],0.5231
SLKLWMLLGIEAFTLS [SeqRBM_4562],Chip Fluorescence (max),[5],1.02
same,Chip Fluorescence (mean),[6],0.3817
GVQANPQFTIKAMMTN [SeqRBM_9281],Chip Fluorescence (max),[1],-0.1422
same,Chip Fluorescence (mean),[2],-2.366
RTYMNPFASFLDHSHR [SeqSFB3_Pseudocercospora_musae],Chip Fluorescence (max),[5],1.14
same,Chip Fluorescence (mean),[6],-0.1201
DSSANPEITITPAELP [SeqRBMlowT_4460],Chip Fluorescence (max),[11],2.624
same,Chip Fluorescence (mean),[12],0.4288
SSRIQSKIVVNEPKQI [SeqRBM_7418],Chip Fluorescence (max),[1],-0.3136
same,Chip Fluorescence (mean),[2],-1.152
ADEAIPEITITPAELP [SeqRBMlowT_424],Chip Fluorescence (max),[11],2.999
same,Chip Fluorescence (mean),[12],0.8947
YFFDRDTGAGKIEQEH [Seqrandom_9991],Chip Fluorescence (max),[11],2.629
same,Chip Fluorescence (mean),[12],-0.3443
RAYINPFMQFIDGGRR [SeqRBMlowT_1520],Chip Fluorescence (max),[3],1.802
same,Chip Fluorescence (mean),[4],-0.3387
LAFALPAFSFAAMKSA [SeqRBM_4599],Chip Fluorescence (max),[1],-0.5301
same,Chip Fluorescence (mean),[2],-2.0266
RNPGTALLTLRGHKKQ [SeqRBMlowT_5859],Chip Fluorescence (max),[1],0.05866
same,Chip Fluorescence (mean),[2],-0.8616
HSKLIPKLSISSPVHH [SeqRBMlowT_1731],Chip Fluorescence (max),[7],0.5936
same,Chip Fluorescence (mean),[8],-1.087
TFWTNPQFRLKVVDPD [SeqRBMlowT_7375],Chip Fluorescence (max),[3],1.609
same,Chip Fluorescence (mean),[4],0.5158
GGPGTPGRQGQPLAPS [SeqRBMlowT_7795],Chip Fluorescence (max),[3],1.388
same,Chip Fluorescence (mean),[4],-0.6767
SQMAAPAINIDFAPTN [SeqRBMlowT_314],Chip Fluorescence (max),[5],0.998
same,Chip Fluorescence (mean),[6],-0.1818
